According to US10806794B2, “Protease inhibitors having enhanced features” (priority 2008, dated 2020):
Several values for one entry are separate records, joined by “and”; a condition that tells them apart may be missing. Identical values can stand only once. Like-named read-outs stand apart in the source and are kept apart here.

Key:
[1] = target: recombinant HIV-1 protease (Human immunodeficiency virus type 1 group M subtype B (isolate HXB2) (HIV-1), UniProt P04585); assay: Enzyme inhibition of purified HIV-1 protease (SensoLyte 520 HIV-Protease Assay Kit); assay type: biochemical
Description: Protease inhibitors (PI) are used to treat HIV infection by preventing viral assembly and maturation through the inhibition of HIV-1 protease activity. Biochemical assays were performed to evaluate the potential of PEG-PI conjugates to inhibit HIV-1 protease activity, relative to their respective PI parent molecules. Activity assays were performed at using the SensoLyte 520 HIV-Protease Assay Kit (Anaspec Inc., San Jose, Calif.) and recombinant HIV-1 protease. Protease activity was monitored by the formation of a fluorescent reporter product generated during HIV-1 protease-mediated digestion of a quenched, fluorimetric substrate containing the p17/p24 Pr^gag cleavage site.

[2] = target: hERG (Homo sapiens (Human), UniProt Q12809); assay: hERG current (IKr) in HEK-293 cells, whole-cell patch clamp; assay type: cell-based; settings: for IC50: hERG current in HEK-293 cells, whole-cell patch clamp, read-out: IC50 (Block of hERG at 0.1 Hz); for IC50 / inhibition at 10 µM / inhibition at 30 µM / inhibition at 100 µM: 0.1 Hz; for inhibition at 10 µM / inhibition at 30 µM / inhibition at 100 µM: human, HEK-293 cells stably expressing hERG, read-out: Mean % inhibition ± SEM (Block of hERG at 0.1 Hz); for inhibition at 10 µM / inhibition at 30 µM / inhibition at 100 µM / Mean % inhibition ± SEM (Block of hERG at 0.1 Hz): HEK-293 cells
hERG, sequence (Q12809 whole entry): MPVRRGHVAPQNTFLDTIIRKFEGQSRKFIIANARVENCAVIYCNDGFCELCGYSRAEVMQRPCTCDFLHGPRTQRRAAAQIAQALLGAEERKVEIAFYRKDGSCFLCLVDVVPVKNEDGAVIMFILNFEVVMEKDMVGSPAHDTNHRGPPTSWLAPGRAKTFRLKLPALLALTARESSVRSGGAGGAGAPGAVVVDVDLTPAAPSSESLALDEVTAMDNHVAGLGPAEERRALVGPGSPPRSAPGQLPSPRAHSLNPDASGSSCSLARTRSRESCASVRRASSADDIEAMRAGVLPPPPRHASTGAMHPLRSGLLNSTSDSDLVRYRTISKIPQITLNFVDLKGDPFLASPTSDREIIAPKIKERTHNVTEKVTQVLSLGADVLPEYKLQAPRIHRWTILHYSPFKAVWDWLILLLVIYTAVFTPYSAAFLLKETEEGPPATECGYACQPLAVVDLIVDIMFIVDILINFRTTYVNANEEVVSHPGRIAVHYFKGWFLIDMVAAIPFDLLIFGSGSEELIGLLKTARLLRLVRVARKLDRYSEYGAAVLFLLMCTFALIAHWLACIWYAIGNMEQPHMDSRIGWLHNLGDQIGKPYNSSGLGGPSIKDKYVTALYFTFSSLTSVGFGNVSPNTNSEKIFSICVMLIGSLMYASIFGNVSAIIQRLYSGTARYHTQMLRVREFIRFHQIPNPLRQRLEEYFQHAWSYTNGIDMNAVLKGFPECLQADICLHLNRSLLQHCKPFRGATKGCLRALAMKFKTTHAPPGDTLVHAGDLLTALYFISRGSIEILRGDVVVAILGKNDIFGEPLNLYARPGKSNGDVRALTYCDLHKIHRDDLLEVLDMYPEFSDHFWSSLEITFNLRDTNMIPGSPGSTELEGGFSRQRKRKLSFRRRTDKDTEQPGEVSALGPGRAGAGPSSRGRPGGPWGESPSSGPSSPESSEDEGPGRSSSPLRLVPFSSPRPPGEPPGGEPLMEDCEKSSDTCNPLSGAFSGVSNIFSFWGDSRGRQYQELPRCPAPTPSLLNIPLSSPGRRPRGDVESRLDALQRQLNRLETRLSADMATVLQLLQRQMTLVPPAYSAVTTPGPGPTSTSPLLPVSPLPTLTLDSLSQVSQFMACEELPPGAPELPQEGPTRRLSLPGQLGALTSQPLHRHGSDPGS
Description: Currents were measured using the whole-cell variant of the patch clamp method. Glass pipettes were produced with tip openings of […] for K current recordings. Pipette tip resistance was approximately 1.0 to 2.0 MΩ when filled with K internal solutions (130 mM KCl, 5 mM MgCl2, 10 mM HEPES, 5 mM EGTA, 5 mM ATP-Na2, pH7.2). An Axopatch 1-B amplifier (Axon Instruments, Foster City, Calif.) was used for whole-cell voltage clamping. Voltage clamp pulses were controlled by pClamp software (ver 9.2, Axon Instruments).
After rupture of the cell membrane, current kinetics and amplitudes were allowed to stabilize as the cell was dialyzed with internal solution and paced at 0.1 Hz (−75 mV; 500 msec, +10 mV; 500 msec, −40 mV; typically 2-4 minutes). Currents were considered stable if the currents elicited by a series of voltage pulses given at 0.1 Hz were superimposed. Peak hERG current was measured as the maximum outward deflection of the tail current elicited upon return to −40 mV.
Data are presented in Table 19 as the percent reduction of current amplitude. This was measured as current reduction after a steady-state effect had been reached in the presence of drug relative to current amplitude before drug was introduced (control). Each cell served as its own control.

[3] = tested on: CEM-SS cells; assay: CEM-SS cytotoxicity (XTT); settings: 7 days
Description: One day prior to assay initiation, cells were split 1:2 to assure exponential growth at the time of the assay. Cells were counted using a hemocytometer, and viability measured by Trypan Blue dye exclusion. […] CEM-SS cells were resuspended at 5×10^4 cells/mL in medium, and 100 μL of the cell suspension was aliquoted to individual wells of a 96-well microtiter plate containing 100 μL 2× concentration test compound. Plates were incubated for 7 days at 37° C., 5% CO2 until cytotoxicity evaluation.
Test compound-induced cytotoxicity was evaluated by monitoring the reduction of the tetrazolium dye XTT to a soluble formazan product in microtiter plates containing compound-treated cells in the absence of HIV-1 virus. XTT solution was prepared at 0.15 mg/mL in phosphate buffered saline. Phenazine methosulfate (PMS) solution was prepared at 0.15 mg/mL in phosphate buffered saline. A XTT/PMS stock solution was prepared immediately before use by combining 40 uL of PMS per mL of XTT solution. Fifty microliters of the XTT/PMS stock was added to each well of the microtiter plate, the plate was incubated for four hours at 37° C., and the amount of soluble formazan product was measured as the absorbance at 450 nm. Cell viability is directly proportional to the amount of soluble formazan product formed.

[4] = in vitro; settings: human
Description: Absorption properties of various compounds were measured using bi-directional permeability assays in Caco-2 cells. […] The efflux ratio is calculated as the ratio of the Papp(B→A)/Papp(A→B).

[5] = Metabolic stability in rat liver microsomes; assay type: in vitro ADME
Description: Metabolic stability of test compounds was studied in rat liver microsomes.

[6] = in vitro; assay type: in vitro ADME; settings: monkey, microsomes
Description: Metabolic stability of test compounds was studied in monkey liver microsomes.

[7] = tested on: CEM-SS cells; assay: CEM-SS macromolecule synthesis (tritiated precursor incorporation); assay type: cell-based; settings: for Thymidine incorportation (CEM-SS) TC50: DNA synthesis; for Uridine incorporation (CEM-SS) TC50: RNA synthesis; for Leucine Incorporation (CEM-SS) TC50: protein synthesis
Description: Cellular macromolecule synthesis was evaluated using tritiated precursor incorporation assays. CEM-SS cells (2.5×10^3 cells/well) were cultured in the presence or absence of test compound for 7 days at 37 C, 5% CO2 in a 96-well microtiter plate. On day 6 of the incubation, 1 uCi of [methyl-3H]-thymidine for DNA synthesis, [5-3H]-uridine for RNA synthesis, or [3,4,5-3H]-leucine for protein synthesis was added to compound-treated cells, and the plate was further incubated for 16 hours. The cells were transferred to a glass fiber filtermat using an Inotech cell harvester. The filtermats were washed with distilled water then sealed in a bag with scintillation fluid. Incorporated radioactivity was measured using a Wallac scintillation counter.

[8] = tested on: human hepatocytes; assay: Metabolic stability in cryopreserved human hepatocytes; settings: human hepatocytes
In short: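 Test compounds at 0.1 μM or 3 μM incubated with cryopreserved human hepatocytes at 0.5×10^6 viable cells/mL. Sampling up to four hours (0.1 μM) or one or two hours (3 μM), methanol quench, then remaining parent measured by cassette LC-MS/MS.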

[9] = tested on: monkey plasma proteins; assay: Plasma protein binding by equilibrium dialysis, monkey plasma; assay type: in vitro ADME; settings: fraction unbound
Description: (§1) In assays to estimate binding of test compounds to plasma proteins, test compound solutions (5 μM) are prepared in buffer and species-specific plasma (final DMSO concentration 0.5%). The plasma-containing solution is added to one side of the membrane of an equilibrium dialysis system, and the plasma-free is added to the other side. Dialysis was allowed to reach equilibrium by incubation for two hours at 37° C. The concentration of compound on both sides of the membrane was measured using LC-MS/MS.

[10] = tested on: rat plasma proteins; assay: Plasma protein binding by equilibrium dialysis, rat plasma; assay type: in vitro ADME; settings: fraction unbound
Description: as §1

SMILES | IC50 [2] | XTT (CEM-SS) TC50 [3] | Thymidine incorportation (CEM-SS) TC50 [7] | Uridine incorporation (CEM-SS) TC50 [7] | Leucine Incorporation (CEM-SS) TC50 [7] | CLint ± SEM ([8]; 0.1 uM, up to four hours) | t1/2 ([8]; 0.1 uM, up to four hours) | IC50 ([1]; read-out: IC50 ± SD) | Monkey Plasma Protein Binding Fu ± SD [9] | Rat Plasma Protein Binding Fu ± SD [10] | further results
COC(=O)N[C@H](C(=O)N[C@@H](Cc1ccccc1)[C@@H](O)CN(Cc1ccc(-c2ccccn2)cc1)NC(=O)[C@@H](NC(=O)OC)C(C)(C)C)C(C)(C)C [Atazanavir, reference compound] | 63.9 µM | 302.1 µM | 288.3 µM | 281.4 µM | 259.6 µM |  |  |  |  |  | IC50 ([1]; IC50 ± SD): 0.00155 µM and 0.00692 µM and 0.00512 µM and 0.0076 µM and 0.00737 µM; inhibition at 10 µM ([2]; 10 μM): 15.6 ± 1.9%; inhibition at 30 µM ([2]; 30 μM): 32.5 ± 3.7%; inhibition at 100 µM ([2]; 100 μM): 60.5 ± 2.5%; Papp A→B ([4]; Caco-2, A→B, ×10^−6): 2.05 ×10⁻⁶ cm/s; half-life [5]: 24.2 min; half-life [6]: 24.2 min; microsomal CLint [6]: 42.9 µL/min/mg
CC(C)CN(C[C@@H](O)[C@H](Cc1ccccc1)NC(=O)O[C@H]1CO[C@H]2OCC[C@H]21)S(=O)(=O)c1ccc(N)cc1 [Darunavir, reference compound] |  | 338.6 µM | 223.2 µM | >400 µM | 285.8 µM |  |  |  |  |  | Papp A→B ([4]; Caco-2): 2.55 ×10⁻⁶ cm/s
COCCOCCOCCOc1ccc(C[C@H](NC(=O)O[C@H]2CO[C@H]3OCC[C@H]32)C(O)CN(CC(C)C)S(=O)(=O)c2ccc(N)cc2)cc1 (stereo partly drawn) [mPEG3-O-Darunavir] |  | >400 µM | 262.9 µM | >400 µM | >400 µM |  |  |  |  |  | 
COCCOCCOCCOCCOCCNc1ccc(S(=O)(=O)N(CC(C)C)CC(O)[C@H](Cc2ccccc2)NC(=O)O[C@H]2CO[C@H]3OCC[C@H]32)cc1 (stereo partly drawn) [mPEG5-N-Darunavir] |  |  |  |  |  | 3.94 ± 0.386 μL/min/10^6 cells | 352 min |  |  |  | CLint ± SEM ([8]; 3 uM, incubated up to one hour): 11.9 ± 1.40 μL/min/10^6 cells
COCCOCCOCCOCCOCCOc1ccc(C[C@H](NC(=O)O[C@H]2CO[C@H]3OCC[C@H]32)C(O)CN(CC(C)C)S(=O)(=O)c2ccc(N)cc2)cc1 (stereo partly drawn) [mPEG5-O-Darunavir] |  | >400 µM | 165.7 µM | >400 µM | >400 µM |  |  |  |  |  | 
COCCOCCOCCOCCOCCOCCOCCNc1ccc(S(=O)(=O)N(CC(C)C)CC(O)[C@H](Cc2ccccc2)NC(=O)O[C@H]2CO[C@H]3OCC[C@H]32)cc1 (stereo partly drawn) [mPEG7-N-Darunavir] |  |  |  |  |  |  |  |  |  |  | CLint ± SEM ([8]; 3 uM, incubated up to one hour): 5.13 ± 0.611 μL/min/10^6 cells
COCCOC(=O)NC(C(=O)NC(Cc1ccccc1)C(O)CN(Cc1ccc(-c2ccccn2)cc1)NC(=O)C(NC(=O)OC)C(C)(C)C)C(C)(C)C (stereo not drawn) [mono-mPEG1-Atazanavir] |  |  |  |  |  | 15.3 ± 0.00173 μL/min/10^6 cells | 90.5 min | 0.00282 µM | 0.246 ± 0.0239 | 0.0793 ± 0.00541 | 
COCCOCCOCCOC(=O)NC(C(=O)NC(Cc1ccccc1)C(O)CN(Cc1ccc(-c2ccccn2)cc1)NC(=O)C(NC(=O)OC)C(C)(C)C)C(C)(C)C (stereo not drawn) [mono-mPEG3-Atazanavir, {1-[N′-[2-Hydroxy-3-(2-{2-[2-(2-methoxy-ethoxy)-ethoxy]-ethoxycarbonylamino}-3,3-dimethyl-butyrylamino)-4-phenyl-butyl]-N′-(4-pyridin-2-yl-benzyl)-hydrazinocarbonyl]-2,2-dimethyl-propyl}-carbamic Acid Methyl Ester] | 88.3 µM | >400 µM | 396.2 µM | 396.6 µM | >400 µM |  |  |  |  |  | inhibition at 10 µM ([2]; 10 μM): 5.4 ± 0.6%; inhibition at 30 µM ([2]; 30 μM): 23.7 ± 3.7%; inhibition at 100 µM ([2]; 100 μM): 53.1 ± 2.6%; efflux ratio ([4]; Caco-2): 44; Papp A→B ([4]; Caco-2, A→B, ×10^−6): 0.53 ×10⁻⁶ cm/s; half-life [5]: 26.8 min; half-life [6]: 26.8 min; microsomal CLint [6]: 249 µL/min/mg
COCCOCCOCCOCCOCCOC(=O)NC(C(=O)NC(Cc1ccccc1)C(O)CN(Cc1ccc(-c2ccccn2)cc1)NC(=O)C(NC(=O)OC)C(C)(C)C)C(C)(C)C (stereo not drawn) [mono-mPEG5-Atazanavir] | > 100 µM |  |  |  |  | 3.98 ± 0.000356 μL/min/10^6 cells | 348 min | 0.00291 µM | 0.383 ± 0.359 | 0.307 ± 0.0493 | Mean % inhibition ± SEM (Block of hERG at 0.1 Hz) ([2]; 10 μM): 11.2 ± 1.4%; Mean % inhibition ± SEM (Block of hERG at 0.1 Hz) ([2]; 30 μM): 26.3 ± 2.9%; Mean % inhibition ± SEM (Block of hERG at 0.1 Hz) ([2]; 100 μM): 43.8 ± 3.9%; t½ [5]: 57.6 min; Clint [6]: 175 μL/min/mg protein; t½ [6]: 57.6 min
COCCOCCOCCOCCOCCOCCOC(=O)NC(C(=O)NC(Cc1ccccc1)C(O)CN(Cc1ccc(-c2ccccn2)cc1)NC(=O)C(NC(=O)OC)C(C)(C)C)C(C)(C)C (stereo not drawn) [mono-mPEG6-Atazanavir] | > 100 µM |  |  |  |  | 0.778 ± 0.000211 μL/min/10^6 cells | 1781 min | 0.00131 µM | 0.598 ± 0.00839 | 0.451 ± 0.0385 | Mean % inhibition ± SEM (Block of hERG at 0.1 Hz) ([2]; 10 μM): 4.4 ± 0.4%; Mean % inhibition ± SEM (Block of hERG at 0.1 Hz) ([2]; 30 μM): 12.7 ± 1.3%; Mean % inhibition ± SEM (Block of hERG at 0.1 Hz) ([2]; 100 μM): 26.0 ± 1.0%; t½ [5]: 104 min; Clint [6]: 238 μL/min/mg protein; t½ [6]: 104 min
COCCOCCOCCOCCOCCOCCOCCOC(=O)NC(C(=O)NC(Cc1ccccc1)C(O)CN(Cc1ccc(-c2ccccn2)cc1)NC(=O)C(NC(=O)OC)C(C)(C)C)C(C)(C)C (stereo not drawn) [mono-mPEG7-Atazanavir] |  |  |  |  |  |  |  | 0.00129 µM | 0.570 ± 0.0439 | 0.255 ± 0.0778 | 
